Assay results from patent US9593146B2, “CD44v6-derived peptides for treating metastasizing cancer” (AMCURE GMBH, priority 2012, dated 2017).

Legend:
Met and ERK [1] = experiment: HGF induced activation of Met and ERK in L3.6pl cells (Western blot); format: cell-based, human; settings: L3.6pl cells, peptide prior to induction with 10 ng/ml HGF
Experimental: (§1) Serum-starved cells (24 hours) were induced with the growth factor HGF (10 ng/mL) at 37° C. for 5 minutes. Where indicated, the cells were treated with peptides (100 ng/ml) prior to induction at 37° C. for 10 minutes (100 ng/mL CD44v6 peptide or control peptide). Following the induction with HGF, cells were washed with ice-cold phosphate-buffered saline (PBS). To detect activated Met and Erk, cells were lysed in sodium dodecyl sulfate (SDS)-sample buffer containing 100 mM dithiothreitol (DTT), boiled and subjected to western blot analysis using antibodies against phospho-Met and ERK. The loading controls were performed on the same blot after stripping (62.5 mM Tris, pH 6.8, 2% SDS, 0.8% DTT) by probing with the Met respectively ERK antibody. Blots were stained using the enhanced chemiluminescence system (Thermo Fisher Scientific, Schwerte, Germany). Bands in western blot analysis were quantified with the program Image J (National Institutes of Health).

BSp73ASs6 cells [2] = experiment: Rat syngeneic model, subcutaneous BSp73ASs6 tumor, metastasis formation; format: in vivo; settings: for metastasis (axillary lymph nodes, lungs): 200 μg per injection, intra-tumoral or intravenously three times a week, start after one week of tumor growth; for outgrowth of primary tumors / metastasis and micro-metastasis in lung sections (PAS and H&E staining): same treatment; for outgrowth of primary tumors: 28 days; for metastasis and micro-metastasis in lung sections (PAS and H&E staining): histological analysis
Experimental: In the case of the rat syngeneic model, 1×10^6 pancreatic cells (BSp73AS and its transfectants) were subcutaneously injected into the right posterior flank of the animals. Tumors developed for four weeks. During this time period animals injected with BSp73ASs6 cells expressing Met-shRNA or control-shRNA received doxycycline in the drinking water. At the end of the experiment, primary tumors were isolated. Lungs and axillary lymph nodes were analyzed. The tissues were incubated for 24 h in a zinc-fixative (0.5 g calcium acetate, 5.0 g zinc acetate, 5.0 g zinc chloride, in 1 L 0.1 M Tris pH 7.4) and embedded in paraffin for further analysis. In case of peptide or antibody treatment tumors developed for one week before the first treatment. Where indicated, animals received 200 μg of peptide or antibody per injection three times per week for four weeks. Tumor growth was monitored weekly using a caliper. Animals were killed at day 28 or 30 after start of the treatment.
For histo-morphological analysis paraffin-embedded sections of lungs were stained with hematoxylin and eosin and periodic acid-Schiff (H&E or PAS). Serial sections of the whole tissue blocks were examined by analyzing slices every 20 μm; in each slice, the presence and the extension of the metastatic deposit was assessed, according to the procedure routinely used by pathologists to evaluate the presence of micro-metastases.

BSp73ASs6 cells [3] = experiment: Apoptosis in established lung metastases (cleaved Caspase-3, cleaved Caspase-8), BSp73ASs6 rat model; format: in vivo; settings: injection every second day
Experimental: 7 μm thick paraffin sections were deparaffinized and rehydrated. For P-Met staining antigen unmasking was achieved by boiling the slides in 1 mM EDTA pH 8.0 followed by incubation for 15 minutes at a sub-boiling temperature, for CD31 staining the sections were treated with Proteinase K (8 μg/ml) for 10 min at 37° C. For immunofluorescence staining of P-Met, unspecific binding was blocked with 5% goat serum (DAKO, Glostrup, Denmark) (diluted in 1×PBS/0.3% Triton X-100) for 60 minutes. In the case of immunohistochemistry, endogenous peroxidases were at first blocked with 3% H2O2 in PBS followed by incubation with biotin blocking system (Dako, Glostrup, Denmark) and then unspecific binding was inhibited by incubation with 5% FCS in PBS. The sections were incubated with the P-Met antibody (D26, dilution 1:50 in 1×PBS/1% BSA/0.3% Triton X-100), Met antibody (C-28, dilution 1:50), GFP antibody (sc-101525, dilution 1:50) or CD31 antibody (5 μg/ml) over night or VFF18 (5 μg/ml) o/n at 4° C. After washing in PBS the sections were incubated with Alexa Fluor R 546 goat anti-rabbit (in case of immunofluorescence P-Met and Met staining, dilution 1:500) or a biotinylated secondary antibody (for immunohistochemical stainings rabbit anti-rat antibody for VFF18 and CD31, goat anti-rabbit for P-Met, cleaved Caspase-3 and cleaved Caspase-8 and rabbit anti-mouse for GFP, dilution 1:500) for 45 minutes. For DAB (3,3′-diaminobenzidine) staining the sections were treated with a streptavidin-peroxidase conjugate (Dako, Glostrup, Denmark) and developed with DAB substrate system (3,3′-diaminobenzidine; Biozol, Eching, Germany). For immunofluorescence DAPI was used for nuclear staining.
One hypothesis for the disappearance of metastases is that the peptides induce apoptosis of CD44v6-expressing metastatic cells in the secondary organs. In order to test this hypothesis, the experiment described above using the BSp73ASs6 cells was repeated. The cells were injected subcutaneously in syngeneic rats and the tumor was allowed to develop for three weeks. After that time the animals were separated in two groups of 10 animals that were injected either with the specific rat CD44v6 peptide or with the control peptide (mouse) every second day. One day following each injection of the peptide, the lungs of one animal were removed and apoptosis was measured using an antibody that detects the cleaved form of Caspase 3. […] Twelve days after injection of the CD44v6 peptide, less apoptosis was observed. […] From these experiments, it is concluded that the CD44v6 peptide induces apoptosis of metastatic cells.

L3.6pl cells = experiment: Human orthotopic model of pancreatic cancer, L3.6pl cells in nude mice; format: in vivo
Experimental: In the case of the human orthotopic model, L3.6pl pancreatic carcinoma cells (passage 24-26) were suspended in Hank's balanced salt solution (Invitrogen, Karlsruhe, Germany) after trypsinization. The cells were injected orthotopically in the pancreas of male nude mice as described (Bruns C J et al. (1999) Neoplasia 1(1):50-62). Two groups of 15 mice each were injected i.p. 7 days later with either the human v6 peptide respectively rat control peptide (20 μg). For all experiments described and depicted herein either the rat 14mer control peptide or the human 14mer peptide were used. All experiments were then repeated with the rat 5mer control peptide or the human 5mer peptide (N-R-W-H-E, SEQ ID NO: 2). […] The injection was repeated three times per week for 21 days. Two days after the last treatment the animals were killed. […]
A comparison of different CD44v6 peptide derivatives was performed in animals bearing a orthotopic L3.6pl tumor. 10 groups of 5 animals each received a dose of 20 μg peptide per injection three times per week for 3 weeks with the compounds listed in Table 4. Three weeks after starting the treatment the animals were sacrificed and analyzed for macroscopic metastases and tumor volume.

4T1 cells = experiment: Syngeneic orthotopic 4T1 mammary carcinoma model in BALB/c mice; format: in vivo; settings: 20 μg i.p. 3 times per week for two weeks
Experimental: FIG. 26: Treatment with the v6 14mer reduces growth of the primary tumor and macroscopic metastases formation in the lung. 1×10^6 murine 4T1 cells per mouse were diluted in 50 μl RPMI plus 50 μl Matrigel and injected into the 6th mammary fat pad of 10 female BALB/c mice. One week after the injection, the mice were either injected intraperitoneally with 20 μg of the murine v6 14mer dissolved in 100 μl PBS or with 20 μg of control peptide (rat v6 14mer) dissolved in 100 μl PBS. The injection was performed 3 times per week for two weeks. After 2 weeks the mice were sacrificed and the primary tumors and the lungs were extracted. A: Overall reduction of the tumor volume in the v6 peptide treated group. B: Immunofluorescent staining for the endothelial marker CD34 to monitor vascularization of the primary tumor. Graphic representation of the reduction of the total vessel area. C: The v6 peptides led to a reduction in macroscopic lung metastasis. The black arrows mark examples for metastases. The scale bar corresponds to a size of 1 cm. Statistical evaluation of the average number of lung metastases. Significance was calculated using Student's t test: p*<0.01; **p<0.005. Each group consisted of 5 animals.
The effect of the CD44v6 14mer was tested in a syngeneic mouse model by orthotopic injection of the murine mammary carcinoma cells 4T1. 4T1 cells were originally derived from a spontaneously arising BALB/c mammary tumor. When introduced orthotopically, 4T1 cells grow rapidly at the primary site and form metastases in the lung and the lymph nodes within a period of 3-6 weeks. The tumor growth and metastatic spreading of 4T1 cells in BALB/c mice very closely mimics human breast cancer stage IV.
The 4T1 cells were injected orthotopically into the 6th mammary fat pad. Two groups of 5 animals each with the implanted tumor cells were then used for the experiment. One group was treated with the v6 14mer peptide, one with a control (rat) peptide. The injection of the peptide was performed 3 times per week and planned for three to four weeks but had to be stopped after two weeks as the control group suffered from large tumors.

HT29 cells = experiment: HGF induced scattering of HT29 cells; format: cell-based, human; settings: for HGF induced clustering / scattering of HT29 cells (FIG. 11): HGF 10 ng/ml, peptide pre-incubation (Example 2)
Experimental: FIG. 17: The human CD44 v6 specific peptides block HGF induced cell scattering and invasion into matrigel. Scattering of HT29 cells was determined in 24-well plates. First, 4.5×10^4 cells were seeded at 37° C.; after 24 h the cells were serum starved for additional 24 h. the cells were either left untreated (control) or later treated with HGF (50 ng/ml) for 24 h. Where indicated the cells were treated with the v6 specific peptide (human v6 5mer, 10mer, 14mer) or control peptide prior to induction with HGF for 30 min. Pictures were made using phase contrast microscopy. Magnification 40×.
A scatter assay was performed additionally. HT29 colon cancer cells were grown in medium containing 10% FCS. One day after seeding, the cells were starved. On the third day, the cells were induced with HGF (10 ng/ml) and pre-incubated with either no peptide, ctrl-peptides (SEQ ID No.: 15), non-pegylated v6-peptides (SEQ ID No.: 11) or the pegylated peptides, namely PEG-rat control peptide and PEG-rat CD44v6 peptide.
Scattering of HT29 cells was determined in 24-well plates. First, 4×10^5 cells were seeded at 37° C.; the cells were either left untreated or 48 h later treated with HGF (50 ng/ml) for 24 h or with PEGylated or non-PEGylated peptides (100 ng/ml) prior to HGF induction for 30 min.

Met and ERK [4] = experiment: HGF induced activation of Met and Erk in BSp73ASs6 cells (Western blot); format: cell-based, rat
Experimental: as §1
Rat pancreatic cancer cells BSp73ASs6 (also designated Ass6) were incubated for 10 min at 37° C. with either ctrl-peptides (SEQ ID No.: 15), non-pegylated v6-peptides (SEQ ID No.: 11) and increasing concentrations of the pegylated peptides, namely PEG-rat control peptide and PEG-rat CD44v6 peptide, before induction with HGF (10 ng/ml; 5 min at 37° C.).
Activation of ERK and Met was determined by standard SDS and Western Blotting techniques using a phospho-Met and phospho-Erk specific antibody (phospho-Met clone D16 cell signaling, phospho-Erk p42/44 cell signaling)
ASs6 cells, serum starved for 24 h, were induced with HGF (10 ng/ml) at 37° C. for 5 min. Where indicated, the cells were treated with PEGylated or non-PEGylated peptides before induction at 37° C. for 10 min (150 nM). Cells were washed with phosphate-buffered saline (PBS) and lysed in boiling sodium dodecyl sulfate (SDS)-sample buffer containing 100 mM dithiothreitol (DTT). Subsequently, lysates were subjected to Western blot analysis using antibodies against phosphorylated Mek and Erk (Cell signaling). The Mek and Erk loading control were performed on the same blot, stripped (62.5 mM Tris pH 6.8, 2% SDS, 0.8% DTT) and probed with the Mek and Erk antibodies. Blots were stained using the enhanced chemiluminescence system (Thermo Fisher Scientific).

[5] = 20 μg i.p. three times per week for three weeks, start 7 days after implantation

Row | Substance | Phosphorylation of Met and ERK (Met and ERK [1]) | metastasis (axillary lymph nodes, lungs) (BSp73ASs6 cells [2]) | outgrowth of primary tumors (BSp73ASs6 cells [2]) | metastasis and micro-metastasis in lung sections (PAS and H&E staining) (BSp73ASs6 cells [2]) | lung metastasis at day twenty-two (BSp73ASs6 cells [3]) | time of maximum of apoptosis (BSp73ASs6 cells [3]) | first detection of apoptotic cells (cleaved Caspase 3) in tumor areas of the lungs (BSp73ASs6 cells [3]; start three weeks after tumor cell injection) | metastasis formation (liver) (L3.6pl cells; [5]) | outgrowth of the primary tumor in the pancreas (L3.6pl cells; [5]) | average number of metastases (4T1 cells; 5 animals) [metastases per lung] | macroscopic lung metastases per animal (4T1 cells; 5 animals per group) | all experiments of the human orthotopic model repeated with 5mer peptides (L3.6pl cells; 20 μg i.p. three times per week for 21 days) | HGF induced clustering / scattering of HT29 cells (FIG. 11) (HT29 cells) | HGF induced Met-phosphorylation and Erk signaling (Met and ERK [4]; ASs6 cells, peptides with 2000 dalton PEG-chain, 150 nM 10 min before HGF 10 ng/ml (FIG. 10)) | Inhibition of ERK, pegylated vs. non-pegylated peptides (Met and ERK [4]; BSp73ASs6 cells) | HGF dependent activation of Met and ERK (Met and ERK [4]; pegylated rat 5mer, 10 min pre-incubation, HGF 10 ng/ml 5 min (FIGS. 9, 10)) | HGF induced scattering of HT29 cells (HT29 cells; PEGylated peptides 100 ng/ml prior to HGF 50 ng/ml (Example 5, FIG. 11))
1 | KEKWFENEWQGKNP [rat 14mer, rat CD44v6 14mer; control peptide in human and mouse models] | had no influence on receptor activation and signal transduction | completely inhibited metastasis | not influenced by either treatment | neither metastasis nor micro-metastasis could be detected | no metastasis could be detected anymore | eight days after the first injection | as early as three days after the first injection | neither any influence on metastasis formation | nor on growth of the primary tumor | 6 | all mice treated with the control peptide developed metastases | – | – | – | – | – | –
2 | NEWQG [rat 5mer, rat CD44v6 5mer peptide] | had no influence on receptor activation and signal transduction | completely inhibited metastasis | not influenced by either treatment | neither metastasis nor micro-metastasis could be detected | – | – | – | – | – | – | – | The same results as for the 14mer peptides were observed | lead to dissociation and migration of cells away from these cell cluster | – | – | – | –
3 | PEG-NEWQG [PEG-rat CD44v6 peptide, rat CD44v6 5mer pegylated at the N-terminal] | – | – | – | – | – | – | – | – | – | – | – | – | lead to dissociation and migration of cells away from these cell cluster | HGF completely failed to induce Met-phosphorylation and to activate Erk signaling | even more efficient | efficient in inhibiting HGF dependent activation of Met and ERK | strongly inhibited
